Experimental data published in PubChem BioAssay AID330 (DTP/NCI, 2004).
Several values for one entry are separate records, joined by “and”; a condition that tells them apart may be missing. Equal values may be shown once. Inconclusive results and toxic doses are left out.

Test system: P388 leukemia ip, CD2F1 mice, survival T/C
Assay: NCI In Vivo Anticancer Drug Screen. Data for tumor model P388 Leukemia (intraperitoneal) in CD2F1 (CDF1) mice
Conditions: endpoint: median survival time, higher = longer survival
How it was run: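 Mice carrying the transplanted tumor received test compound or vehicle. Survival was recorded in each group, and the value is the treated-group measurement divided by that of the vehicle-treated control group.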

[1] = dose: 12.5 mg/kg/injection, schedule: Q01DX005 (ip), vehicle: Klucel (hydroxypropylcellulose) (HPC)
[2] = dose: 25.0 mg/kg/injection, schedule: Q01DX005 (ip), vehicle: Klucel (hydroxypropylcellulose) (HPC)
[3] = dose: 50.0 mg/kg/injection, schedule: Q01DX005 (ip), vehicle: Klucel (hydroxypropylcellulose) (HPC)
[4] = dose: 25.0 mg/kg/injection, schedule: Q01DX009 (ip), vehicle: saline with Tween-80
[5] = dose: 50.0 mg/kg/injection, schedule: Q01DX009 (ip), vehicle: saline with Tween-80
[6] = dose: 200.0 mg/kg/injection, schedule: Q01DX009 (ip), vehicle: saline with Tween-80
[7] = dose: 60.0 mg/kg/injection, schedule: Q01DX005 (ip), vehicle: saline with Tween-80
[8] = dose: 120.0 mg/kg/injection, schedule: Q01DX005 (ip), vehicle: saline with Tween-80
[9] = dose: 240.0 mg/kg/injection, schedule: Q01DX005 (ip), vehicle: saline with Tween-80
[10] = dose: 25.0 mg/kg/injection, schedule: Q01DX009 (ip), vehicle: saline
[11] = dose: 50.0 mg/kg/injection, schedule: Q01DX009 (ip), vehicle: saline
[12] = dose: 100.0 mg/kg/injection, schedule: Q01DX009 (ip), vehicle: saline
[13] = dose: 200.0 mg/kg/injection, schedule: Q01DX009 (ip), vehicle: saline
[14] = dose: 60.0 mg/kg/injection, schedule: Q01DX005 (ip), vehicle: Klucel (hydroxypropylcellulose) (HPC)
[15] = dose: 120.0 mg/kg/injection, schedule: Q01DX005 (ip), vehicle: Klucel (hydroxypropylcellulose) (HPC)

Question: How did the T/C (dose: 100.0 mg/kg/injection, schedule: Q01DX001 (ip), vehicle: saline) turn out when `CC1=C(O)COc2cc(C)ccc21` was run?
Answer: Its T/C is 102 % of control.

Question: And the T/C (dose: 200.0 mg/kg/injection, schedule: Q01DX001 (ip), vehicle: saline)?
Answer: Its T/C is 100 % of control.

Question: And the T/C (dose: 400.0 mg/kg/injection, schedule: Q01DX001 (ip), vehicle: saline)?
Answer: The T/C was 100 % of control.

Question: What does the source list for `Clc1ccc(C2(c3ccncc3)OCCO2)cc1`?
Answer: T/C (dose: 75.0 mg/kg/injection, schedule: Q01DX001 (ip), vehicle: saline): 109 % of control; T/C (dose: 150.0 mg/kg/injection, schedule: Q01DX001 (ip), vehicle: saline): 104 % of control; T/C (dose: 300.0 mg/kg/injection, schedule: Q01DX001 (ip), vehicle: saline): 90 % of control

Question: `CCOC(=O)N1C(=O)C2C3C=CC(C2C1=O)C1C2C(=O)N(C(=O)OCC)C(=O)C2C31` (centres undefined) was tested. Which T/C (dose: 25.0 mg/kg/injection, schedule: Q01DX009 (ip), vehicle: Klucel (hydroxypropylcellulose) (HPC)) did it give?
Answer: Its T/C is 116 % of control and 124 % of control.

Question: What about the T/C (dose: 50.0 mg/kg/injection, schedule: Q01DX009 (ip), vehicle: Klucel (hydroxypropylcellulose) (HPC)) of the same compound?
Answer: The T/C was 121 % of control.

Question: And the T/C (dose: 100.0 mg/kg/injection, schedule: Q01DX009 (ip), vehicle: Klucel (hydroxypropylcellulose) (HPC))?
Answer: The T/C was 152 % of control.

Question: Which results are given for `COc1ccc(CC2C(=O)OC(C)C(NC(=O)C(CC(C)C)N(C)C(=O)C3CCCN3C(=O)C(C)O)C(=O)NC(C(C)C)C(O)CC(=O)OC(C(C)C)C(=O)C(C)C(=O)NC(CC(C)C)C(=O)N3CCCC3C(=O)N2C)cc1` (centres undefined)?
Answer: T/C (dose: 37.5 micrograms/kg/injection, schedule: Q01DX005 (ip), vehicle: distilled water + alcohol): 122 % of control; T/C (dose: 250.0 micrograms/kg/injection, schedule: Q01DX005 (ip), vehicle: distilled water + alcohol): 160 % of control; T/C (dose: 500.0 micrograms/kg/injection, schedule: Q01DX005 (ip), vehicle: distilled water + alcohol): 166 % of control

Question: Which T/C [1] does the source give for `S=C1CCCCCN1` here?
Answer: The T/C was 107 % of control.

Question: What about the T/C [2] of the same compound?
Answer: The T/C was 100 % of control.

Question: What about the T/C [3] of the same compound?
Answer: Its T/C is 103 % of control and 104 % of control.

Question: How did the T/C [4] turn out when `CC(C)=CCc1c2c(c(O)c3c(=O)c(-c4ccc(O)cc4O)coc13)C=CC(C)(C)O2` was run?
Answer: Its T/C is 104 % of control.

Question: What about the T/C [5] of the same compound?
Answer: Its T/C is 102 % of control.

Question: And the T/C (dose: 100.0 mg/kg/injection, schedule: Q01DX009 (ip), vehicle: saline with Tween-80)?
Answer: Its T/C is 104 % of control.

Question: And the T/C [6]?
Answer: The T/C was 99 % of control.

Question: `CCCCOP(O)(=S)OCCCC.[Gd]` was tested. Which T/C [4] did it give?
Answer: Its T/C is 92 % of control.

Question: What about the T/C [5] of the same compound?
Answer: The T/C was 87 % of control and 98 % of control.

Question: What about the T/C [6] of the same compound?
Answer: The T/C was 86 % of control.

Question: Which results are given for `BrC1C2CC/C=C\CCC12` (centres undefined)?
Answer: T/C [7]: 100 % of control; T/C [8]: 104 % of control; T/C [9]: 104 % of control

Question: How did the T/C (dose: 50.0 mg/kg/injection, schedule: Q01DX005 (ip), vehicle: saline with Tween-80) turn out when `Cn1nc(C(N)=O)c(=O)[nH]c1=S` was run?
Answer: The T/C was 100 % of control.

Question: And the T/C (dose: 100.0 mg/kg/injection, schedule: Q01DX005 (ip), vehicle: saline with Tween-80)?
Answer: The T/C was 99 % of control.

Question: And the T/C (dose: 200.0 mg/kg/injection, schedule: Q01DX005 (ip), vehicle: saline with Tween-80)?
Answer: Its T/C is 103 % of control.

Question: What does the source list for `C=c1[nH]c(=O)c(=C)[nH]c1=O`?
Answer: T/C (dose: 12.5 mg/kg/injection, schedule: Q01DX009 (ip), vehicle: other): 94 % of control; T/C (dose: 25.0 mg/kg/injection, schedule: Q01DX009 (ip), vehicle: other): 90 % of control; T/C (dose: 50.0 mg/kg/injection, schedule: Q01DX009 (ip), vehicle: other): 99 % of control; T/C (dose: 100.0 mg/kg/injection, schedule: Q01DX009 (ip), vehicle: other): 106 % of control

Question: For `O=C1NCCNC1c1ccccc1` (centres undefined), which T/C [10] is on record?
Answer: Its T/C is 102 % of control.

Question: And the T/C [11]?
Answer: Its T/C is 102 % of control.

Question: What about the T/C [12] of the same compound?
Answer: The T/C was 98 % of control.

Question: And the T/C [13]?
Answer: Its T/C is 100 % of control.

Question: What does the source list for `O=c1c2ccccc2sc2cccc(NCCCN3CCN(CCCNc4cccc5sc6ccccc6c(=O)c45)CC3)c12`?
Answer: T/C (dose: 0.5 mg/kg/injection, schedule: Q01DX005 (ip), vehicle: saline with Tween-80): 100 % of control; T/C (dose: 1.0 mg/kg/injection, schedule: Q01DX005 (ip), vehicle: saline with Tween-80): 99 % of control; T/C (dose: 2.0 mg/kg/injection, schedule: Q01DX005 (ip), vehicle: saline with Tween-80): 99 % of control; T/C (dose: 4.0 mg/kg/injection, schedule: Q01DX005 (ip), vehicle: saline with Tween-80): 95 % of control; T/C (dose: 8.0 mg/kg/injection, schedule: Q01DX005 (ip), vehicle: saline with Tween-80): 88 % of control

Question: How did the T/C [14] turn out when `COc1c2c(c(OC)c3c1C(=O)C(=O)C=C3O)OCO2` was run?
Answer: Its T/C is 104 % of control.

Question: And the T/C [15]?
Answer: Its T/C is 113 % of control.

Question: Which results are given for `O=c1[nH]nc(OCCO)c2ccccc12`?
Answer: T/C [3]: 100 % of control; T/C (dose: 100.0 mg/kg/injection, schedule: Q01DX005 (ip), vehicle: Klucel (hydroxypropylcellulose) (HPC)): 98 % of control; T/C (dose: 200.0 mg/kg/injection, schedule: Q01DX005 (ip), vehicle: Klucel (hydroxypropylcellulose) (HPC)): 99 % of control

Question: `CC(C)=C(C#N)N(C)C(C)(C)C` was tested. Which T/C [11] did it give?
Answer: Its T/C is 100 % of control.

Question: What about the T/C [12] of the same compound?
Answer: The T/C was 97 % of control.

Question: What does the source list for `NC(N)=NS(=O)(=O)c1ccccc1[N+](=O)[O-]`?
Answer: T/C (dose: 7.5 mg/kg/injection, schedule: Q01DX009 (ip), vehicle: saline with Tween-80): 106 % of control; T/C (dose: 15.0 mg/kg/injection, schedule: Q01DX009 (ip), vehicle: saline with Tween-80): 113 % of control; T/C (dose: 30.0 mg/kg/injection, schedule: Q01DX009 (ip), vehicle: saline with Tween-80): 120 % of control

Question: With `CCn1c2ccccc2c2cc(N=Nc3cc4cc5ccccc5cc4cc3N)ccc21` as the compound, how does the T/C (dose: 100.0 mg/kg/injection, schedule: Q04DX003 (ip), vehicle: Klucel (hydroxypropylcellulose) (HPC)) read?
Answer: Its T/C is 101 % of control.

Question: And the T/C (dose: 200.0 mg/kg/injection, schedule: Q04DX003 (ip), vehicle: Klucel (hydroxypropylcellulose) (HPC))?
Answer: Its T/C is 93 % of control.

Question: With `C=C[C@]1(C)C=C2C(O)CC3C(C)(C)CCC[C@]3(CO)C2CC1` (some centres undefined) as the compound, how does the T/C [7] read?
Answer: Its T/C is 100 % of control.

Question: And the T/C [8]?
Answer: Its T/C is 97 % of control.

Question: And the T/C [9]?
Answer: The T/C was 96 % of control.

Question: With `COC(=O)C1=NC(=S)N=C(C(=O)OC)C12Cc1ccccc1C2=O` as the compound, how does the T/C [14] read?
Answer: The T/C was 92 % of control.

Question: And the T/C [15]?
Answer: The T/C was 93 % of control.

Question: What about the T/C (dose: 240.0 mg/kg/injection, schedule: Q01DX005 (ip), vehicle: Klucel (hydroxypropylcellulose) (HPC)) of the same compound?
Answer: Its T/C is 102 % of control.

Question: With `CC(=O)OCC1Cn2c(c(-c3ccccc3)c(=O)[nH]c2=S)O1` (centres undefined) as the compound, how does the T/C (dose: 100.0 mg/kg/injection, schedule: Q04DX002 (ip), vehicle: Klucel (hydroxypropylcellulose) (HPC)) read?
Answer: Its T/C is 106 % of control.

Question: And the T/C (dose: 200.0 mg/kg/injection, schedule: Q04DX002 (ip), vehicle: Klucel (hydroxypropylcellulose) (HPC))?
Answer: The T/C was 107 % of control.

Question: What about the T/C (dose: 400.0 mg/kg/injection, schedule: Q04DX002 (ip), vehicle: Klucel (hydroxypropylcellulose) (HPC)) of the same compound?
Answer: Its T/C is 110 % of control.

Question: For `COC1=CC(=O)c2cc3ccc(OC)c(N)c3nc2C1=O`, which T/C (dose: 100.0 mg/kg/injection, schedule: Q01DX001 (ip), vehicle: Klucel (hydroxypropylcellulose) (HPC)) is on record?
Answer: Its T/C is 100 % of control.

Question: What about the T/C (dose: 200.0 mg/kg/injection, schedule: Q01DX001 (ip), vehicle: Klucel (hydroxypropylcellulose) (HPC)) of the same compound?
Answer: Its T/C is 102 % of control.

Question: Which T/C [1] does the source give for `CCOC(=O)C1=C(C)NC(=O)NC1c1coc2cc(C)cc(C)c2c1=O` (centres undefined) here?
Answer: The T/C was 86 % of control.

Question: And the T/C [2]?
Answer: Its T/C is 91 % of control.

Question: What about the T/C [3] of the same compound?
Answer: The T/C was 98 % of control and 96 % of control.

Question: With `COc1ccc(CCNCC(O)c2ccc(C)s2)cc1OC` (centres undefined) as the compound, how does the T/C (dose: 12.5 mg/kg/injection, schedule: Q01DX009 (ip), vehicle: saline) read?
Answer: Its T/C is 100 % of control.

Question: And the T/C [10]?
Answer: Its T/C is 86 % of control.

Question: And the T/C [11]?
Answer: Its T/C is 101 % of control and 86 % of control.

Question: What about the T/C [12] of the same compound?
Answer: Its T/C is 98 % of control.

Question: `Cc1c(C2=NCC(C)S2)ccc(O)c1S(=O)(=O)O` (centres undefined) was tested. Which T/C [11] did it give?
Answer: The T/C was 92 % of control.

Question: What about the T/C [12] of the same compound?
Answer: The T/C was 92 % of control.

Question: And the T/C [13]?
Answer: Its T/C is 101 % of control.
